What was measured:
GuApiGT = biological target: T1, GuApiGT (Glycyrrhiza uralensis, UniProt A0AA51Z2W4, DEL371-371/H373Q); assay: HPLC/MS conversion; type: biochemical; conditions: 0.5 mM UDP-Xyl, acceptor isoliquiritin (2) 0.1 mM, pH 8.0, 37 °C, 3 h; printed S371/H373Q (S371 deleted)
T1 construct: full length, 454 aa (ORF 1365 bp), pET-28a(+) His-tagged, E. coli BL21(DE3), nickel-purified

GiApiGT = biological target: T2, GiApiGT (Glycyrrhiza inflata, UniProt A0AA51YKD5); assay: enzyme catalysis, LC/MS; type: biochemical; conditions: sugar donor supplied by UAXS system; acceptor only in figure
T2 construct: full length, pET-28a(+), E. coli BL21(DE3), nickel-purified
T2 sequence (A0AA51YKD5 1-454): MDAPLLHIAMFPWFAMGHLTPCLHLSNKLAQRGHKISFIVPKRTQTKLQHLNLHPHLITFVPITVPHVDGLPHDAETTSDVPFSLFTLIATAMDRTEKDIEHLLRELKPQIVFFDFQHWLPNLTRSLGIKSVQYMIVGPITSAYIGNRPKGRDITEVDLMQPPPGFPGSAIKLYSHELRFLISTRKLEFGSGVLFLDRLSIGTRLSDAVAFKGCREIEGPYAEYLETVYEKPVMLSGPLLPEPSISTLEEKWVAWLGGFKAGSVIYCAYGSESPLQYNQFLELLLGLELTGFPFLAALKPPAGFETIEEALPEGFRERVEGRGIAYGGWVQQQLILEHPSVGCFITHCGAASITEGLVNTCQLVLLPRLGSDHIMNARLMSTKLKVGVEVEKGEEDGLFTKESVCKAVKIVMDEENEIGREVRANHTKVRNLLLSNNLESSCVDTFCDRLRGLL

PtApiGT = biological target: T3, PtApiGT (Pueraria montana, UniProt A0AA51YHU3); assay: enzyme catalysis, LC/MS; type: biochemical; conditions: sugar donor supplied by UAXS system; acceptor only in figure
T3 construct: full length, pET-28a(+), E. coli BL21(DE3), nickel-purified
T3 sequence (A0AA51YHU3 1-457): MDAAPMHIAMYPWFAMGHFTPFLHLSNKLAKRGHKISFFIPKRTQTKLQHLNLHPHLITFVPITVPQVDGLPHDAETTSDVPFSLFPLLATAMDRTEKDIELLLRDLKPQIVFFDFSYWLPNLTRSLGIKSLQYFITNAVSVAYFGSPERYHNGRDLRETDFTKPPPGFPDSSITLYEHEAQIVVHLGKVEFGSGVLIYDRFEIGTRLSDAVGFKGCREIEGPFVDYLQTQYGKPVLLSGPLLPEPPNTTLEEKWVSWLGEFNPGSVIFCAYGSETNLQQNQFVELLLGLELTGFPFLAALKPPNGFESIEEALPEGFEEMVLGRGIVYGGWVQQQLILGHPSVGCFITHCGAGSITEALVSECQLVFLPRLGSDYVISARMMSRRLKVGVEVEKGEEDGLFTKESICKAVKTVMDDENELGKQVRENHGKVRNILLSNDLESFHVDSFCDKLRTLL

GgApiGT = biological target: T4, GgApiGT (Glycyrrhiza glabra, UniProt A0AA51YKR8); assay: enzyme catalysis, LC/MS; type: biochemical; conditions: sugar donor supplied by UAXS system; acceptor only in figure
T4 construct: full length, pET-28a(+), E. coli BL21(DE3), nickel-purified
T4 sequence (A0AA51YKR8 1-454): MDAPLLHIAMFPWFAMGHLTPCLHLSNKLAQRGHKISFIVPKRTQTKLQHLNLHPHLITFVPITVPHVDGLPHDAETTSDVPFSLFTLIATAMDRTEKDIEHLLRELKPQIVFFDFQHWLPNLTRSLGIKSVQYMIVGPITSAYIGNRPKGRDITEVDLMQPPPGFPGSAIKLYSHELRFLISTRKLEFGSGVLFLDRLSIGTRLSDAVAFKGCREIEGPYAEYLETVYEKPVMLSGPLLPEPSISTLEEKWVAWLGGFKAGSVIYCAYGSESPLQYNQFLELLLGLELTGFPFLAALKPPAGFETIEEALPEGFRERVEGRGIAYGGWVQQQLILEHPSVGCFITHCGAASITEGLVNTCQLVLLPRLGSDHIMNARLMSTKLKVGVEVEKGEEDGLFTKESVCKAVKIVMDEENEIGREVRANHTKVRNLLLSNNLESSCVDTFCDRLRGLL

SsApiGT = biological target: T5, SsApiGT (Spatholobus suberectus, UniProt A0AA51YHU4); assay: enzyme catalysis, LC/MS; type: biochemical; conditions: sugar donor supplied by UAXS system; acceptor only in figure
T5 construct: full length, synthesized gene, pET-28a(+), E. coli BL21(DE3), nickel-purified
T5 sequence (A0AA51YHU4 1-448): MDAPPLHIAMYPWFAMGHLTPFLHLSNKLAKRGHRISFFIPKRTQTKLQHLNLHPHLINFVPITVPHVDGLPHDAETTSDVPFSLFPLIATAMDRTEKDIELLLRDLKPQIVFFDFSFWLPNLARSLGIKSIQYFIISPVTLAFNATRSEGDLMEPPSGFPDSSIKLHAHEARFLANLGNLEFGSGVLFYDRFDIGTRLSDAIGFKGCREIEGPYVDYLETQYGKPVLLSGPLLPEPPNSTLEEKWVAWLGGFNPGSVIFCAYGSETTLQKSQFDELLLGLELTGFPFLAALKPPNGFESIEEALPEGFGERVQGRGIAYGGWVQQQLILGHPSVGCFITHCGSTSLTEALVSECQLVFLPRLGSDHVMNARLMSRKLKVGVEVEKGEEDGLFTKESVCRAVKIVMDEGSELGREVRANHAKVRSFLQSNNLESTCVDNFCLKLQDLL

[1] = substrate: O=C(/C=C/c1ccc(O[C@@H]2O[C@H](CO)[C@@H](O)[C@H](O)[C@H]2O)cc1)c1ccc(O)cc1O; assay: HPLC, Michaelis-Menten fit; type: biochemical, Glycyrrhiza uralensis; conditions: 480 µmol/L saturated UDP-apiose, pH 8.0 phosphate, 37 °C, 15 min

T1 sequence (A0AA51Z2W4 entry or part of it DEL371-371/H373Q): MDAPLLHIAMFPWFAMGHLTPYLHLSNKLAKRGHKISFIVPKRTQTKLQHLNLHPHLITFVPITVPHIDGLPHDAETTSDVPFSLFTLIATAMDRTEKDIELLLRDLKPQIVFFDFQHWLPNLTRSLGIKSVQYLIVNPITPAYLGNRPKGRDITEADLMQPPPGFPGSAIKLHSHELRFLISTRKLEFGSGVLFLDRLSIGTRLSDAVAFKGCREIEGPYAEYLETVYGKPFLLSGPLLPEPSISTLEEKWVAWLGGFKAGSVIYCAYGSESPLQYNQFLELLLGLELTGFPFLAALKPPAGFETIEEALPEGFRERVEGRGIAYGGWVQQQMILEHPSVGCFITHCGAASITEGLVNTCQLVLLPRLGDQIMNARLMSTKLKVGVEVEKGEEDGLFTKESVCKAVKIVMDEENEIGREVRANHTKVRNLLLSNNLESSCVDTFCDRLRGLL

## O=c1ccn([C@@H]2O[C@H](COP(=O)(O)OP(=O)(O)O[C@H]3OC[C@@H](O)[C@H](O)[C@H]3O)[C@@H](O)[C@H]2O)c(=O)[nH]1 [UDP-Xyl]
GuApiGT
  HPLC/MS conversion: the S371/H373Q mutant could accept UDP-Xyl as sugar donor

## O=c1ccn([C@@H]2O[C@H](COP(=O)(O)OP(=O)(O)O[C@H]3OC[C@](O)(CO)[C@H]3O)[C@@H](O)[C@H]2O)c(=O)[nH]1 [UDP-Api]
GiApiGT
  enzyme catalysis, LC/MS: identified them as apiosyltransferases by enzyme catalysis reactions
PtApiGT
  enzyme catalysis, LC/MS: identified them as apiosyltransferases by enzyme catalysis reactions
GgApiGT
  enzyme catalysis, LC/MS: identified them as apiosyltransferases by enzyme catalysis reactions
SsApiGT
  enzyme catalysis, LC/MS: identified them as apiosyltransferases by enzyme catalysis reactions

B1: GuApiGT (Glycyrrhiza uralensis) (protein)
chain: MDAPLLHIAMFPWFAMGHLTPYLHLSNKLAKRGHKISFIVPKRTQTKLQHLNLHPHLITFVPITVPHIDGLPHDAETTSDVPFSLFTLIATAMDRTEKDIELLLRDLKPQIVFFDFQHWLPNLTRSLGIKSVQYLIVNPITPAYLGNRPKGRDITEADLMQPPPGFPGSAIKLHSHELRFLISTRKLEFGSGVLFLDRLSIGTRLSDAVAFKGCREIEGPYAEYLETVYGKPFLLSGPLLPEPSISTLEEKWVAWLGGFKAGSVIYCAYGSESPLQYNQFLELLLGLELTGFPFLAALKPPAGFETIEEALPEGFRERVEGRGIAYGGWVQQQMILEHPSVGCFITHCGAASITEGLVNTCQLVLLPRLGSDHIMNARLMSTKLKVGVEVEKGEEDGLFTKESVCKAVKIVMDEENEIGREVRANHTKVRNLLLSNNLESSCVDTFCDRLRGLL
notes: full length, 454 aa (ORF 1365 bp), pET-28a(+) His-tagged, E. coli BL21(DE3), nickel-purified
[1]
  Km: 2.59 ± 0.23 µM
  kcat: 0.11 s⁻¹

Source: article PMC10589286, “Insights into the missing apiosylation step in flavonoid apiosides biosynthesis of Leguminosae plants” (Nature Communications, 2023)
